{"source": "patent US20230167101A1", "about": "“NOVEL INHIBITORS OF HISTONE […] P300/CBP FOR CANCER THERAPY” (BAYLOR COLLEGE OF MEDICINE, priority 2020, published 2023)", "key": {"Kasumi-1 leukemia cells": {"system": "Kasumi-1 leukemia cells", "assay": "Cellular histone acetylation, Western blot", "format": "cell-based", "conditions": "Kasumi-1 cells, 12 h, 5 and 10 µM", "procedure": "Kasumi-1 leukemia cells were treated with increasing concentrations of these compounds for 12 h. Histone was extracted and subjected to electrophoresis separation and Western blot staining to determine levels of acetylation at various lysine residues. […] H3K27 seems to be the most sensitive cellular substrate of p300 HAT. […] This might be due to different mode of inhibition or cell permeability for the two compounds.\nAbout 10^6 Kasumi-1 cells per well were incubated with compound 11 at 0, 5 and 10 µM for 12 hours. Histone proteins were extracted using EpiQuik total histone extraction kit (Epigentek), according to the manufacturer’s protocol. Equal amounts of histones (2 µg) were separated on SDS-PAGE and transferred to PVDF membranes. The blots were probed with primary antibodies against H3K9Ac, H3K18Ac, H3K27Ac and H3 (Cell Signaling), followed by anti-rabbit IgG (Thermo Scientific) secondary antibodies."}, "MCF-7 (Tam-R)": {"system": "MCF-7 (Tam-R)", "assay": "Cell growth inhibition, tamoxifen-resistant MCF-7", "format": "cell-based", "conditions": "read-out: EC50, antiproliferative activity", "procedure": "(§1) The anti-proliferation assays for non-breast cancer cells were done using a previously developed assay. In brief, for Kasumi-1 cells, […] were added into 96-well plates and cultured with increasing concentrations of a compound in RPMI-1640 medium supplemented with 20% fetal bovine serum and penicillin (100 U/mL) and streptomycin (100 µg/mL) at 37° C. in a 5% CO2 atmosphere with 100% humidity. For solid tumor cells, 10^5 cells per well were added into 96-well plates and cultured in Dulbecco’s Modified Eagle’s Medium (DMEM) supplemented with 10% fetal bovine serum and penicillin (100 U/mL) and streptomycin (100 µg/mL) overnight. Upon addition of increasing concentrations of a compound, cells were incubated for 5 days. Cell viability was assessed by using an XTT assay kit (Roche) for leukemia cells or an MTT assay (Sigma) for attachment cells. For the breast cancer MCF-7 cells, culture and inhibition assays were performed according to our previous methods in Ref. 25 and 26. Compound EC50 values were calculated from dose response curves using Prism 5.0."}, "Kasumi-1": {"system": "Kasumi-1", "assay": "Cell growth inhibition, Kasumi-1 (XTT)", "format": "cell-based", "conditions": "Kasumi-1, 5 days; read-out: EC50, antiproliferative activity", "procedure": "as §1"}, "[1]": {"system": "ER+ breast cancer MCF-7 cells", "assay": "RNA sequencing / gene set enrichment analysis (GSEA)", "format": "cell-based, human", "conditions": "MCF-7, 6 µM, 48 h, with estradiol 10 nM", "procedure": "RNA sequencing was used to investigate how treatment with p300 HAT inhibitor 12 affects gene expression in ER^+ breast cancer MCF-7 cells. […] RNA sequencing data were mapped onto the human genome and gene expression profiles were determined and normalized. […] Gene set enrichment analysis (GSEA)(31) was used to analyze significant gene expression changes between these three groups of MCF-7 cells.\nUpon starvation (culturing in phenol red-free DMEM medium with 10% charcoal treated FBS to remove hydrophobic hormones such as estrogens) for 7 days, MCF-7 cells were treated with the p300 inhibitor (6 µM) or DMSO control, in the presence or absence of (10 nM) estradiol (E2) for 48 hours. Total RNA was extracted using RNeasy Plus Mini Kit (Qiagen), according to the manufacturer’s instruction.\nThe RNA integrity for each sample was assessed with a RNA 6000 Nano chip on a 2100 Bioanalyzer (Agilent; Santa Clara, CA). The average RNA integrity score for the sample set was 6.48. Sequencing libraries were prepared using the TruSeq Stranded Total RNA Library Prep Kit (Illumina, Inc; San Diego, CA). Concisely, ribosomal RNA (rRNA) was depleted from total RNA where the remaining (ribo-depleted RNA) was purified, fragmented for 7.5 minutes, and primed for cDNA synthesis. […] The concentration of each library was determined by quantitative PCR (qPCR) by the KAPA Library Quantification Kit for Next Generation Sequencing (KAPA Biosystems; Woburn, MA).\nLibraries were normalized to 50 nmol/L in 10 mM Tris-Cl, pH8.5 with 0.1% Tween 20 then pooled evenly. […] Sequencing-by-synthesis (SBS) was performed on a HiSeq 2500 utilizing v2 chemistry with paired-end 101 bp reads and a 6 bp index read culminating in an average output of 20 million paired-end reads (or 40 million total reads) per sample. Sequence read data were processed and converted to FASTQ format by Illumina BaseSpace analysis software (v2.0.13).\nRNAseq data files were trimmed using Trim Galore!. […] Gene expression was assessed and fragments per kilobase of transcript per million (FPKM) values were determined using Stringtie. […]"}}, "note": "Entries after “also recorded” stand apart in the source; their conditions may differ.", "data": [{"smiles": "CC(C)(C)c1ccc(-c2cc(CNCC3CCNCC3)sc2-c2ccc(C(C)(C)C)cc2)cc1", "note": "[Compound 12]", "values": [{"measurement": "cellular acetylation of histone H3K9, H3K18 and H3K27", "setting": "Kasumi-1 leukemia cells", "value": "significantly inhibit; also recorded: inhibited"}, {"measurement": "EC50", "setting": "MCF-7 (Tam-R)", "value": 3400, "unit": "nM"}, {"measurement": "EC50", "setting": "Kasumi-1", "value": 2600, "unit": "nM"}, {"measurement": "normalized enrichment score (NES), genes suppressed by p300 knockdown (GSE31873)", "setting": "[1]; FIG. 7A", "value": -3.32}, {"measurement": "NES, gene set upregulated by estradiol", "setting": "[1]; FIG. 7B", "value": -9.19}, {"measurement": "NES, genes suppressed by estradiol", "setting": "[1]; FIG. 7C", "value": 7.41}]}]}
